The target of one test is JAK-2 (Homo sapiens, UniProt O60674). The experiment in a line: JAK2 inhibition assay. It is filed as biochemical. The following applies: 12 μM ATP.
In the next test the target is T1, Aurora-2 (Aurora A) (Homo sapiens, UniProt O14965).
T1 sequence (O14965 1-403): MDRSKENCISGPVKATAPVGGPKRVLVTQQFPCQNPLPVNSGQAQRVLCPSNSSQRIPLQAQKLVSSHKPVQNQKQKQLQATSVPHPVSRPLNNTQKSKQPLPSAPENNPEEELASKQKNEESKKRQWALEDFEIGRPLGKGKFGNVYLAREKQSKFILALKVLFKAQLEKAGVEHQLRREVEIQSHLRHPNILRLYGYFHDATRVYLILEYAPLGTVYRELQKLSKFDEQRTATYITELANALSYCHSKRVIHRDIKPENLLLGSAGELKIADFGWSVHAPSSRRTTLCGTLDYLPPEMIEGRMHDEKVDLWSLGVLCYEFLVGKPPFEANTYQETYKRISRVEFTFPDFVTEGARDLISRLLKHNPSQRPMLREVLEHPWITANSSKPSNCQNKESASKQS
The experiment in a line: Aurora-2 (Aurora A) inhibition assay, coupled enzyme. The class given is biochemical. As for the experimental part:
Assays were carried out in a mixture of 100 mM Hepes (pH7.5), 10 mM MgCl2, 1 mM DTT, 25 mM NaCl, 2.5 mM phosphoenolpyruvate, 300 μM NADH, 30 μg/ml pyruvate kinase and 10 μg/ml lactate dehydrogenase. […] Assays were carried out at 30° C. and in the presence of 40 nM Aurora-2.
An assay stock buffer solution was prepared containing all of the reagents listed above, with the exception of Aurora-2 and the test compound of interest. […] The plate was preincubated for 10 minutes at 30° C. and the reaction initiated by addition of 10 μl of Aurora-2. Initial reaction rates were determined with a Molecular Devices SpectraMax Plus plate reader over a 10 minute time course. IC50 and Ki data were calculated from non-linear regression analysis using the Prism software package (GraphPad Prism version 3.0cx for Macintosh, GraphPad Software, San Diego Calif., USA).

The next test deals with Colo205 cells. The experiment in a line: Colo205 cell proliferation, 3H thymidine incorporation. It is filed as cell-based. The note with it: Homo sapiens. As for the experimental part:
Colo205 cells were seeded in 96 well plates and serially diluted compound was added to the wells in duplicate. Control groups included untreated cells, the compound diluent (0.1% DMSO alone) and culture medium without cells.
To measure proliferation, 3 h prior to the end of the experiment 0.5 μCi of 3H thymidine was added to each well. Cells were then harvested and the incorporated radioactivity counted on a Wallac microplate beta-counter. Cell viability was assessed using Promega CellTiter 96AQ to measure MTS conversion. Dose response curves were calculated using either Prism 3.0 (GraphPad) or SoftMax Pro 4.3.1 LS (Molecular Devices) software.
For orientation: Incorporation of labelled thymidine or its analogues reports DNA synthesis.

A further test addresses Aurora-1 (Aurora B) (Homo sapiens, UniProt Q96GD4). Put plainly: Aurora-1 (Aurora B) inhibition assay (radiometric). It is filed as biochemical. The procedure: An assay buffer solution was prepared which consisted of 25 mM HEPES (pH 7.5), 10 mM MgCl2, 0.1% BSA and 10% glycerol. […] To 22 μL of the Aurora-B solution, in a 96-well plate, was added 2 μl of a compound stock solution in DMSO and the mixture allowed to equilibrate for 10 minutes at 25° C. The enzyme reaction was initiated by the addition of 16 μl stock [γ-^33P]-ATP solution (˜20 nCi/μL) prepared in assay buffer, to a final assay concentration of 800 μM. The reaction was stopped after 3 hours by the addition of 16 μL 500 mM phosphoric acid and the levels of ^33P incorporation into the peptide substrate were determined by the following method.
A phosphocellulose 96-well plate (Millipore, Cat no. MAPHNOB50) was pre-treated with 100 μL of a 100 mM phosphoric acid prior to the addition of the enzyme reaction mixture (40 μL). The solution was left to soak on to the phosphocellulose membrane for 30 minutes and the plate subsequently washed four times with 200 μL of a 100 mM phosphoric acid. […] Levels of non-enzyme catalyzed background radioactivity were determined by adding 16 μL of the 500 mM phosphoric acid to control wells, containing all assay components (which acts to denature the enzyme), prior to the addition of the [γ-^33P]-ATP solution. Levels of enzyme catalyzed ^33P incorporation were calculated by subtracting mean background counts from those measured at each inhibitor concentration. […] Ki values were calculated from initial rate data by non-linear regression using the Prism software package (Prism 3.0, Graphpad Software, San Diego, Calif.).

Setting [1] is: 400 μM ATP, 40 nM Aurora-2, read-out: Aurora A Ki.
The mark [2] stands for this setting: COLO 205, read-out: Colo205 inh 3H-Thy incorporation after 72 hours IC50 (uM).
The mark [3] stands for this setting: COLO 205, read-out: Colo205 inh 3H-Thy incorporation after 96 hours IC50 (uM).
Setting [4] is: 800 μM ATP, read-out: Aurora B Ki.

The values that follow come from US8129399B2, “Aminopyrimidines useful as kinase inhibitors” (Vertex Pharmaceuticals Incorporated, priority 2005, dated 2012).

As a reminder, the Ki is a measure of affinity in units of concentration, obtained from inhibition or displacement.

Molecules are shown by their SMILES. Read-outs that look alike come from different tables or passages of the source. Some results are limits rather than exact numbers.

Sequence of JAK-2 (O60674 whole entry, species assumed): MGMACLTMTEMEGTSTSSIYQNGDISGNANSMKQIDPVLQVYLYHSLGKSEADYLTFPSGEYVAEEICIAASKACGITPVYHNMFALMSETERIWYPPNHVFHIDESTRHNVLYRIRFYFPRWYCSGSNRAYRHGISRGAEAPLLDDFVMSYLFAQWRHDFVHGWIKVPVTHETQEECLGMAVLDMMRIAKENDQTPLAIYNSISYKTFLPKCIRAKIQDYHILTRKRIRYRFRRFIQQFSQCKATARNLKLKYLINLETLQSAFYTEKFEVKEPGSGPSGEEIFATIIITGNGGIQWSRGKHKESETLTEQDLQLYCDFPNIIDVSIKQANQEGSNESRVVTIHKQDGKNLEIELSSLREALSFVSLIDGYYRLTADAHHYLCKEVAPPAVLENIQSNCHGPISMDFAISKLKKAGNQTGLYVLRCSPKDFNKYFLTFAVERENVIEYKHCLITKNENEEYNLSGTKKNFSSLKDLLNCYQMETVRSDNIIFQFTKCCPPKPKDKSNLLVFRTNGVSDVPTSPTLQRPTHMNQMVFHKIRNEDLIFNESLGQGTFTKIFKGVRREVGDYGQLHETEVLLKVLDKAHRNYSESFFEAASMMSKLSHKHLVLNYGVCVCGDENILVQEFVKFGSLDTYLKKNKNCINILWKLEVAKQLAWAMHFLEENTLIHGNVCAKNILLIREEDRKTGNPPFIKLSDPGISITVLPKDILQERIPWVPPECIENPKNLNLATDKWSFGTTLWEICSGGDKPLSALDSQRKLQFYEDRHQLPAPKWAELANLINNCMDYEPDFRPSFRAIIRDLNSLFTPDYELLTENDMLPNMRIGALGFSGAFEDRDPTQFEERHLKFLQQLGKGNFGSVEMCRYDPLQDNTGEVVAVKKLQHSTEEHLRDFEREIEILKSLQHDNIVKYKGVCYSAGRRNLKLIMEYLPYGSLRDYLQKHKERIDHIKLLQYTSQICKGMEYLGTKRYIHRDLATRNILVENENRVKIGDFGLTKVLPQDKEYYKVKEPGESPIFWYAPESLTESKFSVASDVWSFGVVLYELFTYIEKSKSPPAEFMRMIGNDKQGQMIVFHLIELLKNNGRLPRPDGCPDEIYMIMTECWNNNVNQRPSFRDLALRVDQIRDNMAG
Sequence of Aurora-1 (Aurora B) (Q96GD4 whole entry): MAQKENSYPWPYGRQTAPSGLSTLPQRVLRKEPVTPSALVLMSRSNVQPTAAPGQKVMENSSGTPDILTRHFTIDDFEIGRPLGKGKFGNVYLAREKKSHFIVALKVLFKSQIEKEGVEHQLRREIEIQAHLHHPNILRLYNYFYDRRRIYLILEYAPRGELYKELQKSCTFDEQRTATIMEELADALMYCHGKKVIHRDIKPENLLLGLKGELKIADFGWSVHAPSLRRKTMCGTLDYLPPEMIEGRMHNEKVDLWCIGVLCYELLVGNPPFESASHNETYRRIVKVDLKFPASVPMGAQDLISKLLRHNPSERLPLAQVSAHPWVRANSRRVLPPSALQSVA

Consider `CCC(=O)Nc1ccc(Sc2nc(Nc3cc(C)n[nH]3)cc(N3CC(O)(C4CC4)C3)n2)cc1` [Compound I-2], for which the values for the Ki on JAK-2, at Aurora-2 (Aurora A) (setting [1]) and on Aurora-1 (Aurora B) (setting [4]) were 0.026 µM, 0.00039 µM and 0.0076 µM, respectively. For the same compound, the IC50 in the test on Colo205 cells (setting [2]) and in the test with Colo205 cells (setting [3]) was 0.026 µM throughout.

In the case of `CCC(=O)Nc1ccc(Sc2nc(Nc3cc(C)n[nH]3)cc(N3CC(O)(C4CCCC4)C3)n2)cc1` [Compound I-3], the Ki on JAK-2 is 0.034 µM; on Aurora-2 (Aurora A) (setting [1]), 0.00067 µM; on Aurora-1 (Aurora B) (setting [4]), 0.0065 µM. Also, the IC50 in the test on Colo205 cells (setting [2]) is 0.002 µM; in the test with Colo205 cells (setting [3]), 0.004 µM.

Regarding `CCC(=O)Nc1ccc(Sc2nc(Nc3cc(C)n[nH]3)cc(N3CC(O)(C(C)C)C3)n2)cc1` [Compound I-5], the Ki is 0.026 µM at JAK-2, 0.0012 µM at Aurora-2 (Aurora A) (setting [1]) and 0.014 µM on Aurora-1 (Aurora B) (setting [4]). Moreover, in the test with Colo205 cells (setting [3]), the IC50 was 0.033 µM.

Turning to `CCC(=O)Nc1ccc(Sc2nc(Nc3cc(C)n[nH]3)cc(N3CC(O)(C(C)CC)C3)n2)cc1` (stereo not drawn) [Compound I-6], the Ki turned out to be 0.044 µM on JAK-2, 0.00077 µM on Aurora-2 (Aurora A) and 0.0062 µM on Aurora-1 (Aurora B). In addition, the IC50 with Colo205 cells (setting [3]) was determined as 0.024 µM.

Take `CCC(=O)Nc1ccc(Sc2nc(Nc3cc(C4CC4)[nH]n3)cc(N3CC(O)(C4CC4)C3)n2)cc1` [Compound I-7]: the values for the inhibition constant Ki on JAK-2, at Aurora-2 (Aurora A) and on Aurora-1 (Aurora B) (setting [4]) were 0.023 µM, 0.00036 µM and less than 0.006 µM, respectively. Moreover, the IC50 in the test on Colo205 cells (setting [3]) came out at 0.022 µM.

In the case of `Cc1cc(Nc2cc(N3CC(O)(C4CC4)C3)nc(Sc3ccc(NC(=O)C4CC4)cc3)n2)n[nH]1` [Compound I-8], the Ki on JAK-2 stood at 0.041 µM; at Aurora-2 (Aurora A) (setting [1]), 0.00087 µM; at Aurora-1 (Aurora B) (setting [4]), 0.0071 µM. In addition, the IC50 is 0.04 µM with Colo205 cells (setting [2]) and 0.033 µM in the test with Colo205 cells (setting [3]).

Consider `Cc1cc(Nc2cc(N3CC(O)(C4CC4)C3)nc(Sc3ccc(NC(=O)C4CCCC4)cc3)n2)[nH]n1` [Compound I-9, N-(4-((4-(3-methyl-1H-pyrazol-5-ylamino)-6-(3-cyclopropyl-3-hydroxyazetidin-1-yl)pyrimidin-2-yl)sulfanyl)phenyl)cyclopentanecarboxamide], for which the Ki at JAK-2 is 0.022 µM; on Aurora-2 (Aurora A) (setting [1]), 0.00043 µM; at Aurora-1 (Aurora B) (setting [4]), less than 0.006 µM. For the same compound, the IC50 in the test on Colo205 cells (setting [3]) amounted to 0.016 µM.

Take `O=C(Nc1ccc(Sc2nc(Nc3cc(C4CC4)[nH]n3)cc(N3CC(O)(C4CC4)C3)n2)cc1)C1CC1` [Compound I-10]: the inhibitory constant (Ki) at JAK-2 was 0.054 µM; at Aurora-2 (Aurora A) it was 0.00042 µM; on Aurora-1 (Aurora B) (setting [4]) it was 0.007 µM. For the same compound, in the test on Colo205 cells (setting [3]), the IC50 stood at 0.042 µM.

Take `Cc1cc(Nc2cc(N3CC(O)(C4CC4)C3)nc(Sc3ccc(NC(=O)C4CC4)cc3F)n2)[nH]n1` [Compound I-11, N-(4-((4-(3-methyl-1H-pyrazol-5-ylamino)-6-(3-cyclopropyl-3-hydroxyazetidin-1-yl)pyrimidin-2-yl)sulfanyl)-3-fluorophenyl)cyclopropanecarboxamide]: the Ki stood at 0.015 µM on JAK-2, 0.00041 µM at Aurora-2 (Aurora A) (setting [1]) and 0.009 µM on Aurora-1 (Aurora B) (setting [4]). Moreover, the IC50 in the test on Colo205 cells (setting [3]) was 0.028 µM.

For the compound `Cc1cc(Nc2cc(N3CC(O)(C4CC4)C3)nc(Sc3ccc(NC(=O)C4CC4(F)F)cc3)n2)[nH]n1` (stereo not drawn) [Compound I-12], the inhibition constant (Ki) stood at 0.0029 µM at JAK-2, 0.00035 µM at Aurora-2 (Aurora A) (setting [1]) and 0.003 µM on Aurora-1 (Aurora B) (setting [4]). The IC50 with Colo205 cells (setting [2]) was found to be 0.019 µM.

As for `Cc1cc(Nc2cc(N3CC(F)(C4CC4)C3)nc(Sc3ccc(NC(=O)C4CC4)cc3)n2)n[nH]1` [Compound I-13], the inhibition constant (Ki) at JAK-2 worked out at 0.11 µM; at Aurora-2 (Aurora A) (setting [1]), 0.0011 µM; at Aurora-1 (Aurora B) (setting [4]) it was 0.022 µM. In addition, the IC50 in the test on Colo205 cells (setting [2]) worked out at 0.072 µM; in the test on Colo205 cells (setting [3]), 0.039 µM.

Take `Cc1cc(Nc2cc(N3CC(F)(C4CC4)C3)nc(Sc3ccc(NC(=O)CC(F)(F)F)cc3)n2)[nH]n1` [Compound I-14, N-(4-(4-(3-methyl-1H-pyrazol-5-ylamino)-6-(3-cyclopropyl-3-fluoroazetidin-1-yl)pyrimidin-2-ylthio)phenyl)-3,3,3-trifluoropropanamide]: the inhibition constant (Ki) came to 0.011 µM at JAK-2, 0.00035 µM at Aurora-2 (Aurora A) (setting [1]) and 0.0068 µM at Aurora-1 (Aurora B) (setting [4]). Also, the IC50 in the test with Colo205 cells (setting [2]) and with Colo205 cells (setting [3]) was 0.006 µM each time.

For `Cc1cc(Nc2cc(N3CC(F)(C4CC4)C3)nc(Sc3ccc(NC(=O)C4CC4)cc3F)n2)n[nH]1` [Compound I-18], the Ki on JAK-2 was determined as 0.36 µM; on Aurora-2 (Aurora A), 0.00035 µM; on Aurora-1 (Aurora B), 0.018 µM. For the same compound, the IC50 in the test on Colo205 cells (setting [2]) came to 0.027 µM.

Take `Cc1cc(Nc2cc(N3CC(F)(C4CC4)C3)nc(Sc3ccc(NC(=O)CC4CC4)cc3)n2)[nH]n1` [Compound I-19]: the Ki is 0.13 µM at JAK-2, 0.00044 µM on Aurora-2 (Aurora A) and 0.021 µM on Aurora-1 (Aurora B) (setting [4]). In the test with Colo205 cells (setting [2]), the IC50 came to 0.05 µM.

Turning to `Cc1cc(Nc2cc(N3CC(F)(C4CC4)C3)nc(Sc3ccc(NC(=O)C4CC4(F)F)cc3)n2)[nH]n1` (stereo not drawn) [Compound I-20], the Ki on JAK-2 came to 0.051 µM; on Aurora-2 (Aurora A) (setting [1]) it was 0.00077 µM; on Aurora-1 (Aurora B) (setting [4]), 0.018 µM. For the same compound, in the test with Colo205 cells (setting [2]), the IC50 amounted to 0.012 µM.

Take `Cc1cc(Nc2cc(N3CC(F)(C4CC4)C3)nc(Sc3ccc(NC(=O)CC(F)(F)F)nc3)n2)[nH]n1` [Compound I-21, N-(5-(4-(3-methyl-1H-pyrazol-5-ylamino)-6-(3-cyclopropyl-3-fluoroazetidin-1-yl)pyrimidin-2-ylthio)pyridin-2-yl)-3,3,3-trifluoropropanamide]: the inhibition constant Ki stood at 0.028 µM at JAK-2, 0.00044 µM at Aurora-2 (Aurora A) and 0.0095 µM at Aurora-1 (Aurora B) (setting [4]). Also, the IC50 in the test with Colo205 cells (setting [2]) amounted to 0.02 µM.
